Measurements published in patent US9771352B2, “Hydroxyalkyl-substituted phenyltriazole derivatives and uses thereof” (BAYER PHARMA AKTIENGESELLSCHAFT, priority 2014, dated 2017).

What was measured:
human V1a receptor = target: T1, human V1a receptor (Homo sapiens, UniProt P37288); assay: Cellular in vitro assay for determining vasopressin receptor activity, V1a receptor cell line (photoprotein luminescence); assay type: cell-based; details: CHO cell line transfected with human V1a receptor; [Arg8]-vasopressin at EC50; compounds of the invention (Table 1A); read-out: IC50 hV1a
T1 construct: expressed in transfected cells; host or cells: CHO K1 (ATCC), also stably transfected with modified aequorin
T1 sequence (P37288 whole entry): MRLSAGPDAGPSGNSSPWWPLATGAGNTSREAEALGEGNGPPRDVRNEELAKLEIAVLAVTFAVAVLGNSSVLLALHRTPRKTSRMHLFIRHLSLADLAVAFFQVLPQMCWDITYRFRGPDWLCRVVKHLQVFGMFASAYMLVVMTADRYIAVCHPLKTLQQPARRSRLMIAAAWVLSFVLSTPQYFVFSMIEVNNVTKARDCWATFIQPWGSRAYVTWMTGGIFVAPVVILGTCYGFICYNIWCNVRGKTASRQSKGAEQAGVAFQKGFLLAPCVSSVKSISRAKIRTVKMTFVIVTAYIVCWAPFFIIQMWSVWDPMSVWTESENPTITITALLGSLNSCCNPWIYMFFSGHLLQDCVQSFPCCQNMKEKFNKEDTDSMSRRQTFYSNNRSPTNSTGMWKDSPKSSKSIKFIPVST
Method: (§1) The identification of agonists and antagonists of the V1a and V2 vasopressin receptors from humans, rats and dogs as well as the quantification of the activity of the compounds of the invention is carried out using recombinant cell lines. These cell lines originally derive from a hamster's ovary epithelial cell (Chinese Hamster Ovary, CHO K1, ATCC: American Type Culture Collection, Manassas, Va. 20108, USA). The test cell lines constitutively express the human, rat or dog V1a or V2 receptors. In case of the […] V1a receptors, cells are also stably transfected with a modified form of the calcium-sensitive photoproteins aequorin (human and rat V1a) or obelin (dog V1a), which, after reconstitution with the cofactor coelenterazine, emit light when there are increases in free calcium concentrations [Rizzuto R, Simpson A W, Brini M, Pozzan T, Nature 358, 325-327 (1992); Illarionov B A, Bondar V S, Illarionova V A, Vysotski E S, Gene 153 (2), 273-274 (1995)]. The resulting vasopressin receptor cells react to stimulation of the recombinantly expressed V1a receptors by intracellular release of calcium ions, which can be quantified by the resulting photoprotein luminescence. The Gs-coupled V2 receptors are stably transfected into cell lines expressing the gene for firefly luciferase under control of a CRE-responsible promoter. Activation of V2 receptors induces the activation of the CRE-responsive promoter via cAMP increase, thereby inducing the expression of firefly luciferase. The light emitted by photoproteins of V1a cell lines as well as the light emitted by firefly luciferase of V2 cell lines corresponds to the activation or inhibition of the respective vasopressin receptor. The bioluminescence of the cell lines is detected using a suitable luminometer [Milligan G, Marshall F, Rees S, Trends in Pharmacological Sciences 17, 235-237 (1996)].
On the day before the assay, the cells are plated out in culture medium (DMEM/F12, 2% FCS, 2 mM glutamine, 10 mM HEPES, 5 μg/ml coelenterazine) in 384-well microtiter plates and kept in a cell incubator (96% humidity, 5% v/v CO2, 37° C.). On the day of the assay, test compounds in various concentrations are placed for 10 minutes in the wells of the microtiter plate before the agonist [Arg^8]-vasopressin at EC50 concentration is added. The resulting light signal is measured immediately in the luminometer.
(§2) Table 1A below lists individual IC50 values for the compounds of the invention (including diastereomeric mixtures as well as separated, enantiopure diastereomers) that were obtained from cell lines transfected with the human V1a or V2 receptor: […]

conscious rats = assay: Diuresis investigations in conscious rats kept in metabolism cages; assay type: in vivo, Wistar rats; details: Rattus norvegicus, po, read-out: Urinary volume; for response vs control in vivo at 1 mg/kg: dosage p.o. 1.0 mg/kg (Table 2A); for response vs control in vivo at 0.3 mg/kg: dosage p.o. 0.3 mg/kg (Table 2A)
Method: Wistar rats (220-450 g body weight) are kept with free access to feed (Altromin) and drinking water. During the experiment, the animals are kept with free access to drinking water for 4 to 8 or up to 24 hours individually in metabolism cages suitable for rats of this weight class (Tecniplast Deutschland GmbH, D-82383 HohenpeiBenberg). At the beginning of the experiment, the animals are administered the test substance in a volume of 1 to 3 ml/kg body weight of a suitable solvent by means of gavage into the stomach. Control animals only receive solvent. Controls and substance tests are carried out in parallel on the same day. Control groups and substance-dose groups each consist of 4 to 8 animals. During the experiment, the urine excreted by the animals is collected continuously in a receiver at the base of the cage. The volume of urine per time unit is determined separately for each animal, and the concentration of urinary electrolytes is measured by standard methods of flame photometry. Before the beginning of the experiment, the body weight of the individual animals is determined.

human V2 receptor = target: T2, human V2 receptor (Homo sapiens, UniProt P30518); assay: Cellular in vitro assay for determining vasopressin receptor activity, V2 receptor cell line (CRE-luciferase); assay type: cell-based; details: CHO cell line transfected with human V2 receptor; [Arg8]-vasopressin at EC50; compounds of the invention (Table 1A); read-out: IC50 hV2
T2 construct: expressed in transfected cells; host or cells: CHO K1 (ATCC) expressing firefly luciferase under a CRE-responsive promoter
T2 sequence (P30518 whole entry): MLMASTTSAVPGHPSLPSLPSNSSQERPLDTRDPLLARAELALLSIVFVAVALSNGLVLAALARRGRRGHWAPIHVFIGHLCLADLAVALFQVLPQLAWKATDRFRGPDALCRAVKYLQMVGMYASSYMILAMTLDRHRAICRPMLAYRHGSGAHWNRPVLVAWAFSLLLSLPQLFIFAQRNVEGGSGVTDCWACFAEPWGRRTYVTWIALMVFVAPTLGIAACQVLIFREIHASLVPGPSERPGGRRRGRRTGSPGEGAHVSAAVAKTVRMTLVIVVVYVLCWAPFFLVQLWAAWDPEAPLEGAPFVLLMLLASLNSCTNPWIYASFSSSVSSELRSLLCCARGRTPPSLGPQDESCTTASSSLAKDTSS
Method: as §1
On the day before the assay, the cells are plated out in culture medium (DMEM/F12, 2% FCS, 2 mM glutamine, 10 mM HEPES) in 384-well microtiter plates and kept in a cell incubator (96% humidity, 5% v/v CO2, 37° C.). […] Upon addition of the cell lysis reagent Triton and the substrate luciferin, luminescence of firefly luciferase is measured in a luminometer.
as §2

| IC50 (human V1a receptor) | IC50 (human V2 receptor) | Structure (SMILES) | response vs control in vivo at 1 mg/kg (conscious rats) | response vs control in vivo at 0.3 mg/kg (conscious rats) |
| --- | --- | --- | --- | --- |
| 1.3 nM | 0.4 nM | CC(O)c1nc(Cn2nc(-c3ccc(Cl)cc3)n(C[C@H](O)C(F)(F)F)c2=O)nn1-c1cc(F)cc(Cl)c1 (single isomer, unassigned) [Example 14] | 753% | – |
| 38.4 nM | 4.1 nM | CC(O)c1nc(Cn2nc(-c3ccc(Cl)cc3)n(C[C@H](O)C(F)(F)F)c2=O)nn1-c1cc(F)cc(Cl)c1 (single isomer, unassigned) [Example 15] | – | 412% |
| 2.7 nM | 3.4 nM | CC(O)c1nc(Cn2nc(-c3ccc(Cl)cc3)n(C[C@H](O)C(F)(F)F)c2=O)nn1-c1ccccc1 (single isomer, unassigned) [Example 17] | 819% | 404% |
| 2.9 nM | 0.2 nM | Cc1cccc(-n2nc(Cn3nc(-c4ccc(Cl)cc4)n(C[C@H](O)C(F)(F)F)c3=O)nc2C(C)O)c1 (single isomer, unassigned) [Example 29] | 983% | 404% |
| 18.9 nM | 3.7 nM | CC(O)c1nc(Cn2nc(-c3ccc(Cl)cc3)n(C[C@H](O)C(F)(F)F)c2=O)nn1-c1cc(Cl)cc(Cl)c1 (single isomer, unassigned) [Example 47] | – | – |
| 3.2 nM | 2.4 nM | CC(O)c1nc(Cn2nc(-c3ccc(Cl)cc3)n(C[C@H](O)C(F)(F)F)c2=O)nn1-c1cc(Cl)cc(Cl)c1 (single isomer, unassigned) [Example 48] | – | – |
| 1.3 nM | 10 nM | CC(O)c1nc(Cn2nc(-c3ccc(Cl)cc3)n(C[C@H](O)C(F)(F)F)c2=O)nn1-c1cc(Cl)ccc1Cl (single isomer, unassigned) [Example 50] | – | – |
| 3 nM | 22.3 nM | CC(O)c1nc(Cn2nc(-c3ccc(Cl)cc3)n(C[C@H](O)C(F)(F)F)c2=O)nn1-c1cc(Cl)ccc1Cl (single isomer, unassigned) [Example 51] | – | – |
| 7.9 nM | 1.8 nM | CC(O)c1nc(Cn2nc(-c3ccc(Cl)cc3)n(C[C@H](O)C(F)(F)F)c2=O)nn1-c1cccc(Cl)c1F (single isomer, unassigned) [Example 53] | – | – |
| 39.7 nM | 1.6 nM | CC(O)c1nc(Cn2nc(-c3ccc(Cl)cc3)n(C[C@H](O)C(F)(F)F)c2=O)nn1-c1cccc(Cl)c1F (single isomer, unassigned) [Example 54] | – | – |
| 2.4 nM | 1.4 nM | CC(O)c1nc(Cn2nc(-c3ccc(Cl)cc3)n(C[C@H](O)C(F)(F)F)c2=O)nn1-c1cccc(OC(F)F)c1 (single isomer, unassigned) [Example 56] | – | – |
| 38.2 nM | 8.2 nM | CC(O)c1nc(Cn2nc(-c3ccc(Cl)cc3)n(C[C@H](O)C(F)(F)F)c2=O)nn1-c1cccc(OC(F)F)c1 (single isomer, unassigned) [Example 57] | – | – |
| 7.8 nM | 0.9 nM | CC(O)c1nc(Cn2nc(-c3ccc(Cl)cc3)n(C[C@H](O)C(F)(F)F)c2=O)nn1-c1cccc(Cl)c1Cl (single isomer, unassigned) [Example 62] | – | – |
| 51.6 nM | 1.9 nM | CC(O)c1nc(Cn2nc(-c3ccc(Cl)cc3)n(C[C@H](O)C(F)(F)F)c2=O)nn1-c1cccc(Cl)c1Cl (single isomer, unassigned) [Example 63] | – | – |
| 2.5 nM | 3.3 nM | CC(O)c1nc(Cn2nc(-c3ccc(Cl)cc3)n(C[C@H](O)C(F)(F)F)c2=O)nn1-c1cccc(F)c1F (single isomer, unassigned) [Example 65] | – | – |
| 4 nM | 1.9 nM | CC(O)c1nc(Cn2nc(-c3ccc(Cl)cc3)n(C[C@H](O)C(F)(F)F)c2=O)nn1-c1cccc(F)c1F (single isomer, unassigned) [Example 66] | – | – |
| 2.1 nM | 2.7 nM | CC(O)c1nc(Cn2nc(-c3ccc(Cl)cc3)n(C[C@H](O)C(F)(F)F)c2=O)nn1-c1cccc(F)c1Cl (single isomer, unassigned) [Example 67] | – | – |
| 3.3 nM | 1.3 nM | CC(O)c1nc(Cn2nc(-c3ccc(Cl)cc3)n(C[C@H](O)C(F)(F)F)c2=O)nn1-c1cccc(F)c1Cl (single isomer, unassigned) [Example 68] | – | – |
| 0.6 nM | 2.1 nM | Cc1ccccc1-n1nc(Cn2nc(-c3ccc(Cl)cc3)n(C[C@H](O)C(F)(F)F)c2=O)nc1C(C)O (single isomer, unassigned) [Example 71] | – | – |
| 1.1 nM | 7 nM | CC(O)c1nc(Cn2nc(-c3ccc(Cl)cc3)n(C[C@H](O)C(F)(F)F)c2=O)nn1-c1ccccc1C(F)(F)F (single isomer, unassigned) [Example 73] | – | – |
| 2.2 nM | 24.7 nM | CC(O)c1nc(Cn2nc(-c3ccc(Cl)cc3)n(C[C@H](O)C(F)(F)F)c2=O)nn1-c1ccccc1C(F)(F)F (single isomer, unassigned) [Example 74] | – | – |
| 7.6 nM | 2.6 nM | O=c1n(Cc2nc(CO)n(-c3cc(F)cc(F)c3)n2)nc(-c2ccc(Cl)cc2)n1C[C@H](O)C(F)(F)F [Example 7, 5-(4-Chlorophenyl)-2-{[1-(3,5-difluorophenyl)-5-(hydroxymethyl)-1H-1,2,4-triazol-3-yl]methyl}-4-[(2S)-3,3,3-trifluoro-2-hydroxypropyl]-2,4-dihydro-3H-1,2,4-triazol-3-one] | – | – |
| 1.2 nM | 10.7 nM | O=c1n(Cc2nc(CO)n(-c3ccccc3C(F)(F)F)n2)nc(-c2ccc(Cl)cc2)n1C[C@H](O)C(F)(F)F [Example 8, 5-(4-Chlorophenyl)-2-({5-(hydroxymethyl)-1-[2-(trifluoromethyl)phenyl]-1H-1,2,4-triazol-3-yl}-methyl)-4-[(2S)-3,3,3-trifluoro-2-hydroxypropyl]-2,4-dihydro-3H-1,2,4-triazol-3-one] | – | – |
| 0.4 nM | 2.3 nM | O=c1n(Cc2nc(CO)n(-c3cc(F)ccc3Cl)n2)nc(-c2ccc(Cl)cc2)n1C[C@H](O)C(F)(F)F [Example 9, 2-{[1-(2-Chloro-5-fluorophenyl)-5-(hydroxymethyl)-1H-1,2,4-triazol-3-yl]methyl}-5-(4-chlorophenyl)-4-[(2S)-3,3,3-trifluoro-2-hydroxypropyl]-2,4-dihydro-3H-1,2,4-triazol-3-one] | – | – |
| 12.5 nM | 13.5 nM | C[C@@H](O)c1nc(Cn2nc(-c3ccc(Cl)cc3)n(C[C@H](O)C(F)(F)F)c2=O)nn1-c1cccc(F)c1 [Example 77, 5-(4-Chlorophenyl)-2-({1-(3-fluorophenyl)-5-[(1R)-1-hydroxyethyl]-1H-1,2,4-triazol-3-yl}-methyl)-4-[(2S)-3,3,3-trifluoro-2-hydroxypropyl]-2,4-dihydro-3H-1,2,4-triazol-3-one] | – | – |
| 46.3 nM | 5.1 nM | C[C@@H](O)c1nc(Cn2nc(-c3ccc(Cl)cc3)n(C[C@H](O)C(F)(F)F)c2=O)nn1-c1cccc(Cl)c1 [Example 80, 5-(4-Chlorophenyl)-2-({1-(3-chlorophenyl)-5-[(1R)-1-hydroxyethyl]-1H-1,2,4-triazol-3-yl}-methyl)-4-[(2S)-3,3,3-trifluoro-2-hydroxypropyl]-2,4-dihydro-3H-1,2,4-triazol-3-one] | – | – |
